Literature values in US8637296B2, “Lactobacillus helveticus strains for producing hypotensive peptides” (Nestec S.A., priority 2008, dated 2014).

Target: angiotensin converting enzyme (ACE) (Homo sapiens, UniProt P12821)
Sequence (P12821 30-1306, species assumed): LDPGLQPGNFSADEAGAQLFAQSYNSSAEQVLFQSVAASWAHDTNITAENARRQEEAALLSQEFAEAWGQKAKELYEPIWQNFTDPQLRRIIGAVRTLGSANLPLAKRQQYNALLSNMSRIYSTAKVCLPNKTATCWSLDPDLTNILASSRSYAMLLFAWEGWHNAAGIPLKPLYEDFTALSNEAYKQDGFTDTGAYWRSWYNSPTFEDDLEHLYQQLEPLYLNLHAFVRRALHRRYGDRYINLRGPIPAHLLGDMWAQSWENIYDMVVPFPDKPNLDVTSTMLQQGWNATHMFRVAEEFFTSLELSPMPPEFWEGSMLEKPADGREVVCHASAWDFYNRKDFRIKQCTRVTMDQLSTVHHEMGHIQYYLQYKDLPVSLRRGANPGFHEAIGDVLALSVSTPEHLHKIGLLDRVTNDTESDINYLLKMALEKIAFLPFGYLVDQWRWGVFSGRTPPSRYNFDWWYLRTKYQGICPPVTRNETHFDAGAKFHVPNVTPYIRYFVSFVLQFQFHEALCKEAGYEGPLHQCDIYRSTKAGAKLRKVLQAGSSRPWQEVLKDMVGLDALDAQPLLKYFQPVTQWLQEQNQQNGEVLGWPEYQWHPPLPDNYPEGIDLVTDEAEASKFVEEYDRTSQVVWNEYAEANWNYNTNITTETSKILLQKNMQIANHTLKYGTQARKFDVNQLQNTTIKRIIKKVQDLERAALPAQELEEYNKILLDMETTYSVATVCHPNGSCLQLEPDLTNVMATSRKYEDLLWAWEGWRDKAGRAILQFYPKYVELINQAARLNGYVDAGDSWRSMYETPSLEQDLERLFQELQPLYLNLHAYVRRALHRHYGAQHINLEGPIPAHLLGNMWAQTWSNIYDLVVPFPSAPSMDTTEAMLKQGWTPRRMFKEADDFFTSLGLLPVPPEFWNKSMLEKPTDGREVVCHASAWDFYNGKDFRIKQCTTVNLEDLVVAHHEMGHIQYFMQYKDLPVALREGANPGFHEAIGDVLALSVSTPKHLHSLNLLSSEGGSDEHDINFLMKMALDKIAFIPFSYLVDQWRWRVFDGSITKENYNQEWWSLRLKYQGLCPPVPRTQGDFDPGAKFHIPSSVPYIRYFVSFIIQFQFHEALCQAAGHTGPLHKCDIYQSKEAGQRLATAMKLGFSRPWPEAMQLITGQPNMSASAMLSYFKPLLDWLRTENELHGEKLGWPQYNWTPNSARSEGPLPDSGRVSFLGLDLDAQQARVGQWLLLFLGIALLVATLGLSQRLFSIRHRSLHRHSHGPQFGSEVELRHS

SMILES	inhibition of angiotensin converting enzyme (ACE)
CC[C@H](C)[C@H](N)C(=O)N1CCC[C@H]1C(=O)N1CCC[C@H]1C(=O)O [IPP, isoleucyl-prolyl-proline]	inhibit
CC(C)[C@H](N)C(=O)N1CCC[C@H]1C(=O)N1CCC[C@H]1C(=O)O [VPP, valyl-prolyl-proline]	inhibit
